{"source": "patent US20180125856A1", "about": "“USE OF GLUCOCORTICOID RECEPTOR ANTAGONIST AND SOMATOSTATIN ANALOGUES TO TREAT ACTH-SECRETING TUMORS” (Corcept Therapeutics, Inc., priority 2015, published 2018)", "system": "human patient with an ectopic ACTH-secreting pancreatic neuroendocrine tumor", "experiment": "Tolerability in a patient", "format": "in vivo", "conditions": "week 20, octreotide LAR continued", "source_text": "Mifepristone was resumed for an additional 12-month extension period. […] The collection of cortisol and ACTH data was less frequent during the extension study."}
{"smiles": "CC#C[C@]1(O)CC[C@H]2[C@@H]3CCC4=CC(=O)CCC4=C3[C@@H](c3ccc(N(C)C)cc3)C[C@@]21C", "note": "[mifepristone, 17-β-hydrox-11-β-(4-dimethyl-aminophenyl)17-α-(1-propynyl)estra-4,9-dien-3-one]", "values": [{"measurement": "adverse events for which the drug was briefly stopped", "result": "significant fatigue, low appetite, and nausea"}]}
